According to US20160015771A1, “METHOD OF TREATING OPTIC NERVE DAMAGE, OPHTHALMIC ISCHEMIA OR OPHTHALMIC REPERFUSION INJURY” (Curonz Holdings Company Limited, priority 2012, published 2016):

How the values were obtained:
[1] = system: Retinal Ganglion Cells (RGC); experiment: Retinal ganglion cell (RGC) survival by BRN3A staining of flat-mounted retinae after optic nerve ligation/reperfusion; assay type: in vivo, Male Long-Evans rats; conditions: 8 days after injury
Procedure: Ischemia was maintained for 45 minutes.
At the end of the study, the animals were euthanized by intraperitoneal injection of overdosed pentobarbital. After euthanasia at day 8 after optic nerve ligation injury, the retinae of both eyes of N=6 animals per cohort were fixed in formalin 4% (1 h at room temperature), dissected and flat-mounted. The flat-mounted preparation was incubated with an Alexa 594 conjugated anti-BRN3A (Brain-specific homeobox/POU domain protein 3A, Chemicon, cat #mAb1585) to visualize the Retinal Ganglion Cells (RGC). Fluorescence was assessed by an Apotome microscope at magnification×20 (Zeiss) within twelve randomly selected respective microscopic fields per subject. The number of surviving RGC was determined with Axio Vision 4.2 software in the respective retinae areas.
Animals were sacrificed at day 8 and retinae were analysed for BrN3A (Brain-specific homeobox/POU domain protein 3A) protein expression patterns that are specific for retinal ganglion cells (RGCs). 12 fields per retina were evaluated.

[2] = system: ischemia-related optic nerve injury; conditions: topically or intraperitoneal (IP) applied formulations; cited from earlier work

Brc1c(NC2=NCCN2)ccc2nccnc12 [Brimonidine]
total RGCs rescued ([1]; relative to non-ischemic eyes, saline group 19.6%): 39.6% | RGC density ([1]; Brimonidine prophylactically applied, 1 mg/kg IP 1 h before ischemia, n=5, non-ischemic eyes 2158 RGCs/mm2): 855.5±30.7 RGCs/mm2 | neuroprotective activity [2]: neuroprotective
